Results as given in article PMC6440567 (Clinical and Translational Science, 2018).

Tests used:
[1] = Final ceftazidime PopPK model; format: in vivo, human
[2] = Individual predicted steady‐state exposures; format: in vivo, human; settings: for AUC / Cmax: human, plasma
[3] = taken to be; ref not given; cited from earlier work

SMILES: CC(C)(O/N=C(\C(=O)N[C@@H]1C(=O)N2C(C(=O)[O-])=C(C[n+]3ccccc3)CS[C@H]12)c1csc(N)n1)C(=O)O [Ceftazidime, ceftazidime]
- lower V c ([1]; Asian compared with non‐Asian patients): 27%
- lower CL ([1]; Chinese patients vs non‐Asians): 9%
- Slope 1: CrCL < 100 mL/min, slope1*CrCL ([1]; CrCL effect on CL): 0.0103
- lower V c ([1]; body weight at 10th percentile (50 kg) vs median weight (70 kg)): 24%
- clearance ([1]; human, plasma, intravenous, θ1: CL, typical value): 116 mL/min
- θ9: Population effect on V c (cUTI) ([1]; in vivo): 1.03
- θ10: Population effect on V c (cIAI or NP) ([1]; in vivo): 1.14
- θ13: WT effect on V c ([1]; in vivo): 1.01
- θ14: Population effect on V c (NPv) ([1]; in vivo): 0.297
- lower CL ([1]; non‐Chinese, non‐Japanese Asians vs non‐Asians): 16%
- higher V c ([1]; patients with NPv vs non‐NPv patients): 29.7%
- higher CL ([1]; patients with cIAI vs. healthy subjects and patients with cUTI): 16%
- θ2: V c ([1]; typical value): 10.5 L
- θ3: Q ([1]; typical value): 31.5 L/h
- θ4: V p ([1]; typical value): 7.57 L
- AUC ([2]; AUCss,0–24 geometric mean (CV), Age (years) 18–65): 800 µg·h/mL
- AUC ([2]; AUCss,0–24 geometric mean (CV), Age (years) > 65–75): 997 µg·h/mL
- AUC ([2]; AUCss,0–24 geometric mean (CV), Age (years) > 75–89): 1100 µg·h/mL
- AUC ([2]; AUCss,0–24 geometric mean (CV), Asian population: China (only)): 892 µg·h/mL
- AUC ([2]; AUCss,0–24 geometric mean (CV), Asian population: Japan): 1020 µg·h/mL
- AUC ([2]; AUCss,0–24 geometric mean (CV), Baseline WBC count Missing): 924 µg·h/mL
- AUC ([2]; AUCss,0–24 geometric mean (CV), Concomitant use of OAT1/OAT3 inhibitor(s): No): 869 µg·h/mL
- AUC ([2]; AUCss,0–24 geometric mean (CV), Concomitant use of OAT1/OAT3 inhibitor(s): Yes): 934 µg·h/mL
- AUC ([2]; AUCss,0–24 geometric mean (CV), Fever at baseline: Missing): 929 µg·h/mL
- AUC ([2]; AUCss,0–24 geometric mean (CV), Fever at baseline: No): 888 µg·h/mL
- AUC ([2]; AUCss,0–24 geometric mean (CV), Fever at baseline: Yes): 859 µg·h/mL
- AUC ([2]; AUCss,0–24 geometric mean (CV), Obesity I (29.9 ≤ BMI < 34.9 kg/m^2)): 841 µg·h/mL
- AUC ([2]; AUCss,0–24 geometric mean (CV), Obesity II (34.9 ≤ BMI < 39.9 kg/m^2)): 894 µg·h/mL
- AUC ([2]; AUCss,0–24 geometric mean (CV), Obesity III (BMI ≥ 39.9 kg/m^2)): 806 µg·h/mL
- AUC ([2]; AUCss,0–24 geometric mean (CV), Obesity: Missing): 959 µg·h/mL
- AUC ([2]; AUCss,0–24 geometric mean (CV), Obesity: Normal): 878 µg·h/mL
- AUC ([2]; AUCss,0–24 geometric mean (CV), Race: Asian (non‐Chinese; non‐Japanese)): 968 µg·h/mL
- AUC ([2]; AUCss,0–24 geometric mean (CV), Race: Chinese and Taiwanese): 884 µg·h/mL
- AUC ([2]; AUCss,0–24 geometric mean (CV), Race: Japanese): 1020 µg·h/mL
- AUC ([2]; AUCss,0–24 geometric mean (CV), Race: White/other): 848 µg·h/mL
- Cmax ([2]; C max,ss geometric mean (CV), Age (years) 18–65): 70 µg/mL
- Cmax ([2]; C max,ss geometric mean (CV), Age (years) > 65–75): 77.1 µg/mL
- Cmax ([2]; C max,ss geometric mean (CV), Age (years) > 75–89): 76.8 µg/mL
- Cmax ([2]; C max,ss geometric mean (CV), Asian population: China (only)): 78.4 µg/mL
- Cmax ([2]; C max,ss geometric mean (CV), Asian population: Japan): 90.4 µg/mL
- Cmax ([2]; C max,ss geometric mean (CV), Asian population: Korea): 79.9 µg/mL
- Cmax ([2]; C max,ss geometric mean (CV), Concomitant use of OAT1/OAT3 inhibitor(s): No): 71.7 µg/mL
- Cmax ([2]; C max,ss geometric mean (CV), Concomitant use of OAT1/OAT3 inhibitor(s): Yes): 78.5 µg/mL
- Cmax ([2]; C max,ss geometric mean (CV), Fever at baseline: Missing): 75.1 µg/mL
- Cmax ([2]; C max,ss geometric mean (CV), Fever at baseline: No): 71.9 µg/mL
- Cmax ([2]; C max,ss geometric mean (CV), Fever at baseline: Yes): 72.1 µg/mL
- Cmax ([2]; C max,ss geometric mean (CV), Obesity I (29.9 ≤ BMI < 34.9 kg/m^2)): 67.9 µg/mL
- Cmax ([2]; C max,ss geometric mean (CV), Obesity II (34.9 ≤ BMI < 39.9 kg/m^2)): 73.7 µg/mL
- Cmax ([2]; C max,ss geometric mean (CV), Obesity III (BMI ≥ 39.9 kg/m^2)): 64.2 µg/mL
- Cmax ([2]; C max,ss geometric mean (CV), Obesity: Missing): 70.9 µg/mL
- Cmax ([2]; C max,ss geometric mean (CV), Obesity: Normal): 73 µg/mL
- Cmax ([2]; C max,ss geometric mean (CV), Race: Asian (non‐Chinese; non‐Japanese)): 82.2 µg/mL
- Cmax ([2]; C max,ss geometric mean (CV), Race: Chinese and Taiwanese): 77.6 µg/mL
- Cmax ([2]; C max,ss geometric mean (CV), Race: Japanese): 90.4 µg/mL
- Cmax ([2]; C max,ss geometric mean (CV), Race: White/other): 68.6 µg/mL
- AUC ([2]; intravenous): 748 µg·h/mL
- Cmax ([2]; intravenous): 67 µg/mL
- AUC ([2]; intravenous, 187.5 mg, AUCss,0–24 geometric mean (CV), Day 3 CrCL 8–15 mL/min (750‐187.5 mg q24 h)): 551 µg·h/mL
- Cmax ([2]; intravenous, 187.5 mg, C max,ss geometric mean (CV), Day 3 CrCL 8–15 mL/min (750‐187.5 mg q24 h)): 34.3 µg/mL
- AUC ([2]; intravenous, 500 mg, AUCss,0–24 geometric mean (CV), Day 3 CrCL > 150–180 mL/min (2000‐500 mg q8 h)): 652 µg·h/mL
- Cmax ([2]; intravenous, 500 mg, C max,ss geometric mean (CV), Day 3 CrCL > 150–180 mL/min (2000‐500 mg q8 h)): 58.5 µg/mL
- AUC ([2]; intravenous, AUCss,0–24 geometric mean (CV), Asian population: Korea): 952 µg·h/mL
- AUC ([2]; intravenous, AUCss,0–24 geometric mean (CV), Asian population: Taiwan): 728 µg·h/mL
- AUC ([2]; intravenous, AUCss,0–24 geometric mean (CV), Asian population: Vietnam): 852 µg·h/mL
- AUC ([2]; intravenous, AUCss,0–24 geometric mean (CV), Bacteremia at baseline: No): 881 µg·h/mL
- AUC ([2]; intravenous, AUCss,0–24 geometric mean (CV), Bacteremia at baseline: Yes): 919 µg·h/mL
- AUC ([2]; intravenous, AUCss,0–24 geometric mean (CV), Baseline APACHE II score > 10): 938 µg·h/mL
- AUC ([2]; intravenous, AUCss,0–24 geometric mean (CV), Baseline APACHE II score Missing): 979 µg·h/mL
- AUC ([2]; intravenous, AUCss,0–24 geometric mean (CV), Baseline WBC count (cells/μL) > 12,000): 801 µg·h/mL
- AUC ([2]; intravenous, AUCss,0–24 geometric mean (CV), Baseline WBC count (cells/μL) ≤ 12,000): 923 µg·h/mL
- AUC ([2]; intravenous, AUCss,0–24 geometric mean (CV), Patient population: NP): 950 µg·h/mL
- AUC ([2]; intravenous, AUCss,0–24 geometric mean (CV), Patient population: Non‐VAP): 1020 µg·h/mL
- AUC ([2]; intravenous, AUCss,0–24 geometric mean (CV), Patient population: VAP): 830 µg·h/mL
- AUC ([2]; intravenous, AUCss,0–24 geometric mean (CV), Patient population: cIAI): 749 µg·h/mL
- AUC ([2]; intravenous, AUCss,0–24 geometric mean (CV), Patient population: cUTI): 979 µg·h/mL
- AUC ([2]; intravenous, AUCss,0–24 geometric mean (CV), SIRS at baseline: Missing): 977 µg·h/mL
- AUC ([2]; intravenous, AUCss,0–24 geometric mean (CV), SIRS at baseline: No): 895 µg·h/mL
- AUC ([2]; intravenous, AUCss,0–24 geometric mean (CV), SIRS at baseline: Yes): 869 µg·h/mL
- Cmax ([2]; intravenous, C max,ss geometric mean (CV), Asian population: Taiwan): 59.4 µg/mL
- Cmax ([2]; intravenous, C max,ss geometric mean (CV), Asian population: Vietnam): 78.6 µg/mL
- Cmax ([2]; intravenous, C max,ss geometric mean (CV), Bacteremia at baseline: No): 71.9 µg/mL
- Cmax ([2]; intravenous, C max,ss geometric mean (CV), Bacteremia at baseline: Yes): 73.6 µg/mL
- Cmax ([2]; intravenous, C max,ss geometric mean (CV), Baseline APACHE II score > 10): 72.3 µg/mL
- Cmax ([2]; intravenous, C max,ss geometric mean (CV), Baseline APACHE II score Missing): 77.9 µg/mL
- Cmax ([2]; intravenous, C max,ss geometric mean (CV), Baseline WBC count (cells/μL) > 12,000): 67.6 µg/mL
- Cmax ([2]; intravenous, C max,ss geometric mean (CV), Baseline WBC count (cells/μL) ≤ 12,000): 74.6 µg/mL
- Cmax ([2]; intravenous, C max,ss geometric mean (CV), Patient population: NP): 72.9 µg/mL
- Cmax ([2]; intravenous, C max,ss geometric mean (CV), Patient population: Non‐VAP): 79 µg/mL
- Cmax ([2]; intravenous, C max,ss geometric mean (CV), Patient population: VAP): 61.9 µg/mL
- Cmax ([2]; intravenous, C max,ss geometric mean (CV), Patient population: cIAI): 66.9 µg/mL
- Cmax ([2]; intravenous, C max,ss geometric mean (CV), Patient population: cUTI): 77.9 µg/mL
- Cmax ([2]; intravenous, C max,ss geometric mean (CV), SIRS at baseline: Missing): 83.5 µg/mL
- Cmax ([2]; intravenous, C max,ss geometric mean (CV), SIRS at baseline: No): 72.3 µg/mL
- Cmax ([2]; intravenous, C max,ss geometric mean (CV), SIRS at baseline: Yes): 71.5 µg/mL
- difference in steady‐state exposure vs. healthy volunteers ([2]; most patient subgroups): ≤ 20%
- lower C max,ss ([2]; patients with VAP vs non‐VAP patients): ~ 20%
- free plasma concentrations as % of total plasma concentrations [3]: 85%
